{"source": "paper PMC7824081", "about": "“Inhibition of DOT1L by Half-Selenopsammaplin A Analogs Suppresses Tumor Growth and EMT-Mediated Metastasis in Triple-Negative Breast Cancer” (Pharmaceuticals, 2020)", "key": {"[1]": {"system": "other histone H3 methylated lysine residues in MDA-MB-231 cells", "assay": "Western blotting of other methylated histone H3 lysine residues in MDA-MB-231 cells", "format": "cell-based, human", "conditions": "48 h", "procedure": "Total cell lysates were prepared in 2× sample loading buffer [250 mM Tris-HCl (pH 6.8), 10% glycerol, 4% sodium dodecyl sulfate (SDS), 2% β-mercaptoethanol, 0.006% bromophenol blue, 5 mM sodium orthovanadate, and 50 mM sodium fluoride; Bio-Rad, Hercules, CA, USA]. The protein concentrations of samples were quantified using the bicinchoninic acid (BCA) method and a BCA Protein Assay Kit (Thermo Fisher Scientific, Waltham, MA, USA). Equal amounts of protein (5–20 μg) were separated by 6–13% SDS-polyacrylamide gel electrophoresis (PAGE) and transferred to polyvinylidene fluoride membranes (Millipore, Bedford, MA, USA). The membranes were blocked with 5% bovine serum albumin (Sigma-Aldrich) and then probed with anti-DOT1L, anti-H3K79me2, anti-β-Actin, anti-histone H3, anti-H3K4me2, anti-H3K27me2, anti-H3K36me2, anti-H3K79me1, anti-H3K79me3, and anti-Vimentin antibodies purchased from Cell Signaling Technology (Beverly, MA, USA) or with anti-E-cadherin and anti-N-cadherin antibodies purchased from (BD Biosciences, San Jose, CA, USA). The blots were detected using a WEST-Queen detection system (iNtRON Biotechnology, Seongnam, Korea)."}, "[2]": {"system": "MCF10A normal breast epithelial cells", "assay": "SRB cell proliferation assay, MCF10A", "format": "cell-based, human", "conditions": "Homo sapiens, MCF-10A, 72 h", "procedure": "Human breast epithelial cell line (MCF10A) and human TNBC cell lines (MDA-MB-468, MDA-MB-231, Hs578T, and HCC38 cells) were provided by the American Type Culture Collection (Manassas, VA, USA). MCF10A cells were cultured in Dulbecco’s Modified Eagle’s Medium/Nutrient Mixture F-12 containing 5% donor horse serum, 100 ng/mL cholera toxin, 10 µg/mL human insulin, 20 ng/mL epidermal growth factor, 0.5 µg/mL hydrocortisone, and penicillin-streptomycin (sodium penicillin G: 100 units/mL; streptomycin: 100 μg/mL). The TNBC cells were cultured in medium [Dulbecco’s Modified Eagle’s Medium for MDA-MB-468, MDA-MB-231, and Hs578T cells; Roswell Park Memorial Institute 1640 medium for HCC38 cells] supplemented with penicillin-streptomycin and 10% fetal bovine serum at 37 °C in a humidified incubator with 5% carbon dioxide. MCF10A cells were cultured in DMEM/F12 containing 5% donor horse serum, 100 ng/mL cholera toxin, 10 µg/mL human insulin, 20 ng/mL epidermal growth factor, 0.5 µg/mL hydrocortisone and penicillin-streptomycin. All reagents used for cell culture, including culture medium, fetal bovine serum, trypsin-EDTA solution (1×), and penicillin-streptomycin solution (100×), were purchased from Gibco (Grand Island, NE, USA). Laemmli sample buffer (2×) and 2-mercaptoethanol were purchased from Bio-Rad Laboratories, Inc. (Hercules, CA, USA). EPZ-5676 was purchased from Cayman Chemical (Ann Arbor, MI, USA). Dimethyl sulfoxide (DMSO), bicinchoninic acid, copper (II) sulfate solution, bovine serum albumin (BSA), trichloroacetic acid, sulforhodamine B (SRB), and paclitaxel were purchased from Sigma–Aldrich (St. Louis, MO, USA).\nCell proliferation was evaluated using the SRB assay. Briefly, cells were seeded in 96-well plates and incubated for 30 min (for 0-day controls) or treated with test compounds for the times indicated. After incubation, the cells were fixed, dried, and stained with 0.4% (w/v) SRB in 1% (v/v) acetic acid solution. Unbound dye was removed by washing, and stained cells were dissolved in 10 mM Tris (pH 10.0). Cell proliferation was then determined by measuring the absorbance at 515 nm."}}, "data": [{"smiles": "CC(C)(C)c1ccc(C/C(=N\\O)C(=O)NCC[Se]Sc2ccccc2)cc1", "note": "[9l, (E)-3-(4-(tert-Butyl)phenyl)-2-(hydroxyimino)-N-(2-((phenylthio)selanyl)ethyl)propanamide]", "values": [{"measurement": "other histone H3 methylated lysine residues", "setting": "[1]", "value": "not affected"}, {"measurement": "IC50", "setting": "[2]", "value": 25.9, "unit": "µM"}]}]}
